Laboratory results published in patent US20080070892A1, “TREATING PAIN, DIABETES, AND DISORDERS OF LIPID METABOLISM” (priority 2006, published 2008).

Molecular target: T1, human CaV3.2 (Homo sapiens, UniProt O95180)
T1 construct: expressed in transfected cells
Assay: IonWorks screen for hCaV3.2 (Cav3.2 Ionworks assay)
Assay type: cell-based
Conditions: read-out: IW hCav3 2 IC50
Excerpt: Functional evaluation of voltage-gated ion channels was used to determine potency and/or single concentration efficacy of proprietary compounds. Two different methodologies were used to measure ion currents: the IonWorks HT (Molecular Devices, Sunnyvale, Calif.) a moderate throughput voltage clamp screening platform that utilizes 96-well compound plates and conventional whole cell patch clamp for lower throughput, higher fidelity determinations.
HEK cells were transiently transfected and then selected for stable heterologous expression of different channel proteins of interest. Calcium channel cell lines expressed a resting potassium current, human Kir2.1, and the pore forming α-subunit of voltage-gated calcium channels. In the case of CaV2.1 cells the auxiliary subunit, β2a, was also expressed. Calcium channel lines that were used to generate the data in this document expressed either human CaV3.2, rat CaV3.2 or human CaV2.1. The human heart sodium channel, hNaV1.5, was stably expressed in CHO cells. These cells were licensed from the University of Pennsylvania.
Cell lines were grown at 37° C. in humidified incubators, equilibrated with 95% air/5%0 CO2 CHO cells were grown in Ham's F-12 medium. HEK cells were grown in DMEM. All media were supplemented with 10% heat-inactivated fetal bovine serum, penicillin, streptomycin and appropriate selection antibiotics (zeocin, geneticin and/or hygromycin). Cells were passaged when 80% confluent or less.
IonWorks Screen for hCaV3.2
The extracellular buffer for experiments using this instrument contained the following (mM) (NaCl 125, HEPES 10, KCl 5.4, CaCl2 1.8, MgCl2 1.8, 0.2 BaCl2 pH 7.35). The IonWorks uses amphotericin to gain electrical access to the cell interior. The internal solution contained (mM concentrations): 130 K-gluconate, 20 KCl, 5 HEPES-KOH (pH 7.25), 2 CaCl2, 1 MgCl2. Amphotericin added at 5 mg in 65 ml when present (in 650 μl DMSO). All internal and external solutions for this experiment contain 1% DMSO. Cells were acutely trypsinized from a T-75 flask and resuspended in extracellular buffer at a density of 2×10^5 cells/ml.
Experiments were performed at room temperature. Transmembrane potential was held at −100 mV for 5 seconds prior to running the voltage protocol. During this time leak currents were measured during a step to −110 mV (200 milliseconds). T-type calcium currents were activated with a 250 millisecond step to −20 mV. This depolarization step was repeated for a total of 10 pulses with an interpulse interval of 1 second. Data were excluded if the following acceptance criteria were not met: total resistance for the pre-compound scan >65 MΩ, pre-compound current >250 pA, post compound total resistance >50 MΩ.
T-type currents were measured as the peak inward current minus the current at the end of the 250 msec step to −20 mV. After the recoding configuration was established there was a pre-compound measurement of current amplitude. Compound was added as a 3× solution containing 1% DMSO. After incubation with compound for 10 minutes currents were measured again. The current amplitude after compound addition was divided by the pre-compound current for pulse 10 to determine the fraction of current remaining after compound addition. For each compound, 8-point concentration-effect relationships were measured with ½ log serial dilutions.

T1 sequence (O95180 whole entry): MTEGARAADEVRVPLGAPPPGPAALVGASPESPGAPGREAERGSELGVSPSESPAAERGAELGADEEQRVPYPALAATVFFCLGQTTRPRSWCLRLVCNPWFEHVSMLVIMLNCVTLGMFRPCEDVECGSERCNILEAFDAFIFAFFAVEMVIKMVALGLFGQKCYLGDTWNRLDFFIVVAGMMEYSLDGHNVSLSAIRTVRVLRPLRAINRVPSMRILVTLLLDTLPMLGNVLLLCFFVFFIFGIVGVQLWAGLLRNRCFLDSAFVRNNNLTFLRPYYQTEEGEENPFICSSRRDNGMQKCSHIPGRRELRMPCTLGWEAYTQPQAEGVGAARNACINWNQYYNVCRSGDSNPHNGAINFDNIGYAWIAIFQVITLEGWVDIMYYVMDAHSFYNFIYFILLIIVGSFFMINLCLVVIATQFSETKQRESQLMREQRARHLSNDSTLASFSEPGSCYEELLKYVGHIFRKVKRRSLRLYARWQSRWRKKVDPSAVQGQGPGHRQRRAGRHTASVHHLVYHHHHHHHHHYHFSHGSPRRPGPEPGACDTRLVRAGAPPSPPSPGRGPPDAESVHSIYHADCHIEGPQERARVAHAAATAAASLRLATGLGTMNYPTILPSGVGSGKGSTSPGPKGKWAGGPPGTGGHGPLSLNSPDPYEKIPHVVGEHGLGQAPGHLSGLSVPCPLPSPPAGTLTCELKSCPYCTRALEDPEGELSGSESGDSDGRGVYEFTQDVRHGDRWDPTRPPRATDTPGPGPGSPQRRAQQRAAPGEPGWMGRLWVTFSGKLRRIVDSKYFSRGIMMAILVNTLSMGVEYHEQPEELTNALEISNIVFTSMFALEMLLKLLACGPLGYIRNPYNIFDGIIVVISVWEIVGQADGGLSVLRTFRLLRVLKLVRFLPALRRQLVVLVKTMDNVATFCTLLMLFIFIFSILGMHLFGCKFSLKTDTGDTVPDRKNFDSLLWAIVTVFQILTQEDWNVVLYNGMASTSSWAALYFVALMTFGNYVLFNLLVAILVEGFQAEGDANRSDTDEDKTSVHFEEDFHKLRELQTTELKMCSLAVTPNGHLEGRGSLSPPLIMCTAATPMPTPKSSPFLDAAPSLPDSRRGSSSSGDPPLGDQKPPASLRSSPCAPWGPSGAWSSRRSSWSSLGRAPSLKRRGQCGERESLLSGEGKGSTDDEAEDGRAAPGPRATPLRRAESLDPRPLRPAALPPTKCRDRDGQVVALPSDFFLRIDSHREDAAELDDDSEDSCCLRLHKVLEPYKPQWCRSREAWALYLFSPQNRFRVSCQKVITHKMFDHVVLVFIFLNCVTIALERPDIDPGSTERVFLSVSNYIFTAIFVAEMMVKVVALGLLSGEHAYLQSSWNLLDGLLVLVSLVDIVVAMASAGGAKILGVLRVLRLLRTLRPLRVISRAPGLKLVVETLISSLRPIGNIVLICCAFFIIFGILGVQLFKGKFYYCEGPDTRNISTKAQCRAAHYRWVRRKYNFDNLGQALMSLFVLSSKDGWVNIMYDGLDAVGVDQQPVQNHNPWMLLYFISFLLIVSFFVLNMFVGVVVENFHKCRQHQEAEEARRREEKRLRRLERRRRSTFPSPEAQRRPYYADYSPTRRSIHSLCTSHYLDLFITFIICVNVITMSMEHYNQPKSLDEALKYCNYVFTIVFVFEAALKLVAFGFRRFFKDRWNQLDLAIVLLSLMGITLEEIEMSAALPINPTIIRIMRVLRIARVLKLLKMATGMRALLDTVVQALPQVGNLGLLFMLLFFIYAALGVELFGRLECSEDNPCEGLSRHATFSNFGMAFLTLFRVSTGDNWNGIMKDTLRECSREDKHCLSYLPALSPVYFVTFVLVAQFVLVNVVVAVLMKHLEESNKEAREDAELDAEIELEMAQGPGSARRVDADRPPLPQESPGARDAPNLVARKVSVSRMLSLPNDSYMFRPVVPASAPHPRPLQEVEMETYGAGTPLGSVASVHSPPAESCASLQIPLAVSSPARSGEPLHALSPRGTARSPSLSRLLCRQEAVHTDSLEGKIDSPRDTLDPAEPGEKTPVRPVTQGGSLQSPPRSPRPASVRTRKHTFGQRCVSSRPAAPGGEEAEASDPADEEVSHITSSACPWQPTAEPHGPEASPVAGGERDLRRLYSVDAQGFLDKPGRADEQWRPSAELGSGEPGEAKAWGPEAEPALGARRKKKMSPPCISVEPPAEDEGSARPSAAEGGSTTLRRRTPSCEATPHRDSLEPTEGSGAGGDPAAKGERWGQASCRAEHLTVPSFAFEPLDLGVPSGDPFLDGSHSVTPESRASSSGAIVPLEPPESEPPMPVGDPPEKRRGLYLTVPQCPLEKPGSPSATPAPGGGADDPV

Compound	IC50
COC(=O)[C@H](CC(C)C)NC(=O)N1CCC2(CC1)CN(CC(C)C)C2c1ccc(Cl)cc1 (stereo partly shown)	23 nM
CC[C@H](C)[C@H](NC(=O)N1CCC2(CC1)CN(CC(C)C)C2c1ccc(Cl)cc1)C(=O)OC (stereo partly shown)	26 nM
COC(=O)[C@@H](NC(=O)N1CCC2(CC1)CN(CC(C)C)C2c1ccc(Cl)cc1)C(C)C (stereo partly shown)	32 nM
COC(=O)[C@H](CC(C)C)NC(=O)N1CCC2(CC1)CN(C(C)C)C2c1ccc(Cl)cc1 (stereo partly shown)	65 nM
CC[C@H](C)[C@H](NC(=O)N1CCC2(CC1)CN(c1ccc(F)cc1)C2c1ccc(Cl)cc1)C(=O)OC (stereo partly shown)	77 nM
CC(C)N1CC2(CCN(C(=O)Nc3cc(F)cc(F)c3)CC2)C1c1ccc(Cl)cc1 (single isomer, unassigned)	32 nM

Continued, values first:

IC50	Compound
376 nM	O=C(C1CCCCC1)N1CCC2(CC1)CN(C(=O)C1(c3ccc(Cl)cc3)CCCC1)C2c1ccccc1 (stereo not shown)
69 nM	CC(C)N1CC2(CCN(C(=O)Nc3ccc(F)cc3)CC2)C1c1ccc(Cl)cc1 (single isomer, unassigned)

Molecular target: T2, human-SP9215 (GPR119) (Homo sapiens, UniProt Q8TDV5)
T2 construct: expressed in transfected cells
T2 sequence (Q8TDV5 1-335): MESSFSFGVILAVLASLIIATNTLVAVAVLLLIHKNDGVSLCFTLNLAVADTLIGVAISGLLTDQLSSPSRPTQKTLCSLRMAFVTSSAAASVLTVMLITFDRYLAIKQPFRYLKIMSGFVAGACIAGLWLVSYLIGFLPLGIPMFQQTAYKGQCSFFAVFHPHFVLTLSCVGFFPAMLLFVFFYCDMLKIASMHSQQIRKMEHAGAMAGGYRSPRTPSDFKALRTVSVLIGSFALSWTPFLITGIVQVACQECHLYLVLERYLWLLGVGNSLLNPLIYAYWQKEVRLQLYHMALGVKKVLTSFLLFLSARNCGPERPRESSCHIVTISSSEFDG
Assay: GPR119 screening assay (LANCE cAMP)
Assay type: cell-based
Conditions: HEK 293 cells stably transfected with human GPR119, read-out: GPR 119 cAMP IC50
Description: • +100 mg BSA (MP Biomedicals faction V, #103703)=0.1% • +500 ul 1M HEPES (Cellgro #25-060-CI)=5 mM • +75 ul RO-20 (Sigma B8279; 20 mM stock in DMSO stored in aliquots at −20 C)=15 uM • (made fresh daily) B84 (N-[4-(methylsulfonyl)phenyl]-5-nitro-6-[4-(phenylthio)-1-piperidinyl]-4-pyrimidinamine, see WO 2004/065380). A 10 mM stock solution of the test compound in DMSO was prepared, aliquoted and stored at −20 C. For Totals—Dilute 1:33.3 in DMSO then 1:50 in Stimulation Buffer=6 uM in 2% DMSO (=3 uM B84 and 1% DMSO final). For Dose Response Curve—3 ul stock+7 ul DMSO+490 ul Stim Buffer=60 uM in 2% DMSO (=30 uM B84 and 1% DMSO final). (made fresh daily). Cell Line: Human clone 3. HEK 293 cells stable transfected with human-SP9215 (GPR119)/pcDNA3.1 and also stable for pCRELuc, Stratagene. Cells are maintained in DMEM containing 10% FBS (invitrogen #02-4006Dk, lot #1272302, heat inactivated), 1×MEM, 1× Pen/Strep, 0.1 mg/ml Hygromycin 6, and […] G418. Cells are split 1:8 twice per week. cAMP Kit: LANCE™ cAMP 384 kit, Perkin Elmer #AD0263 Compound Dilutions: • Add DMSO to vials containing compounds to yield a 1 mg/ml solution. • 1. Dilute compounds to 60 μM in Stimulation buffer. Make ½ log dilutions into Stimulation buffer containing 2% DMSO using the epMotion robot. 10 point dose response curve 1 nM to 30 uM. • 2. Compounds are run in quadruplicate, 2 separate dilutions for each, sets 1 and 1a. Assay Procedure: • 1. The afternoon before the assay, replace the media in the flask of Human clone 3 cells with Optimem. (Gibco #11058-021) NOTE: cells should be in culture 6-8 days. • 2. Next morning, pipette the cells gently off the flask using HBSS (RT). • 3. Pellet the cells (1300 rpm, 7 min, RT) and resuspend in Stimulation Buffer at […] (=5-8,000 cell/6 ul). Add 1:100 dilution of Alexa Fluor 647-anti cAMP antibody (provided in the kit) directly to the cell suspension. • 4. Into white 384-well plates (Matrix) add 6 ul of 2× B84, cmpds or stim buffer for nsb. They all contain 2% DMSO (=1% DMSO final). • 5. Add 6 ul of the cell suspension to the wells. Incubate 30 minutes RT. • 6. For the std curve add 6 ul cAMP std solution diluted in Stim Buffer+2% DMSO according to kit directions (1000-3 nM). Add 6 ul of 1:100 anti-cAMP dilution in Stim Buffer to std wells. • 7. Make Detection Mix according to kit instructions and incubate 15 min RT. • 8. Add 12 ul Detection Mix to all the wells. Mix gently by tapping and incubate 2-3 hrs RT. • 9. Read on the Envision under the protocol “Lance/Delphia cAMP” • 10. Values (nM) for each sample are determined by extrapolation from the std curve. % Control, Fold and EC50 (Control=3 uM B84) are determined for each compound, averaging sets 1 and 1a. Results

IC50	Compound
1640 nM	O=C(c1ccc2c(c1)OCCCO2)N1CCC2(CC1)CN(c1ccc(F)cc1)C2c1ccc(Cl)cc1 (stereo not shown)
1920 nM	CC(C)CN1CC2(CCN(C(=O)c3ccc4c(c3)OCCCO4)CC2)C1c1ccccc1 (stereo not shown)
2620 nM	CC(C)CN1CC2(CCN(C(=O)c3ccc4c(c3)OCCCO4)CC2)C1c1ccc(Cl)cc1 (stereo not shown)
2770 nM	O=C(c1ccc2c(c1)OCCCO2)N1CCC2(CC1)CN(Cc1ccccc1Cl)C2c1ccc(Cl)cc1 (stereo not shown)
2980 nM	O=C(c1ccc2[nH]cnc2c1)N1CCC2(CC1)CN(Cc1ccccc1Cl)C2c1ccccc1 (stereo not shown)
